Reference: patent US8871900B2, “Fibroblast growth factor (FGF) analogs and uses thereof” (University of Rochester, priority 2008, dated 2014)
Peptide text beside a SMILES is read from it.

Experiments:
[1] = test system: BM cells; experiment: 3H-TdR incorporation of normal and irradiated (0.5 Gy) BM cells; format: cell-based, mouse
Method: To determine if BM cells damaged by IR still responded to FGF-P, cells were plated in 96 round-bottom wells with serum-free ultraDoma-PF media and equally divided into two parts; one was not irradiated as control, and the other was irradiated with 0.5 Gy. They were then treated with equal amount of test agents within 1 hour post-IR. The following day, 0.2 uCi/well of ^3H-TdR was added and they were further cultured for 4 days before harvesting with a 96 well automatic harvester. […] There was no response to EPO.

[2] = Stool hemoccult score after sub-TBI; format: in vivo, mouse (Balb/c, C57BL/6); details: Balb/c, 12.5 Gy sub-TBI; FGF-P 2 mg/kg im 15 min post irradiation; Amifostine iv 30 min pre-irradiation; P<0.05
Text: There are commonly employed assays known to be relevant to both mouse and man for determining relative endpoints. These include: 1) stool blood: mucosal barrier breakdown is associated with bleeding of the small bowel; therefore, a hemoccult analysis with a commercial kit (BD Cat #64151) was used in the preliminary data at 3 days after sub-TBI. The time course and frequency of GI bleeding; 2) stool formation: the GI functions of digestion, absorption of nutrition and water, and the regular movement of intestinal muscle are required for formation of normal stool can be measured. All these functions can be upset by radiation. For example, loss of villi leads to decreased fluid absorption and diarrhea. The colon was excised and examined visually for the presence of formed stool at 3.5 days post-IR; 3) endotoximia: bacterial translocation can occur at early times following gastrointestinal radiation exposure.
2) A standard scoring scale was used to evaluate stool formation (diarrhea). The bowel was extracted from the abdomen and visually inspected. Formed stool was easily distinguished from semi-solid and liquid stool as it passed from the ascending to descending colon. FIGS. 7B and 7C show the irradiated bowel in controls compared with FGF-P-treated Balb/c mice. The FGF-P was given at a dose of 2 mg/kg im for three daily doses beginning 15 min after irradiation. […]

[3] = test system: GM-CSF; experiment: Plasma cytokine arrays after IR; format: in vivo, mouse; details: post-IR
Text: A 96 cytokine membrane array (RayBioTech, Norcross, Ga.) and a Luminex Multiple cytokine beads array (Panomics, Fremont, Calif.) were used to determine the alteration of a panel of plasma cytokines after IR and the effect of FGF-P on reversing the altered pattern. […]-P also exerts homeostatic effect to keep cytokine level towards normal balance.

[4] = Tail vein bleeding time after 4 Gy TBI; format: in vivo, mouse; details: 10 days after 4 Gy TBI; FGF-P 15 mg/kg daily for 3 days then every other day for 3 times
Text: The bleeding is stopped by coagulant cascade, mainly the platelet aggregation, the vessel contraction and thrombosis which are trigged by the released platelet granules (Francis 2007, Khorana 2005). IR blocks the megakaryocytopoiesis and reduces the thrombocytopoiesis (an imbalance between the synthesis and consuming of coagulant proteins), which leads to a prolonged bleeding time. To determine if FGF-P has any effect on the bleeding time, the a single tail vein at the same anatomy position was cut in same depth and merged into 37° C. warm water, the time between bleeding and stopping was recorded. The test was performed on 10 days after 4 Gy TBI.

[5] = test system: Balb/c mice exposed to TBI; experiment: Survival after TBI (BM syndrome / ARS); format: in vivo, mouse (Balb/c); details: for mice survived: Balb/c
[6] = Plasma endotoxin after sub-TBI (tachypleus amebocyte lysate kit); format: in vivo, mouse (Balb/c, C57BL/6); details: Balb/c, 10.5 Gy sub-TBI, 3.5 days post-IR; FGF-P treated (vehicle 3.32, normal 0.45)
Method: Some studies have employed bacterial culture of liver samples. Bacterial translocation occurs due to mucosal barrier changes (1) at the level of the basement membrane and (2) bowel mucous volume and composition. The most reliable and most clinically applicable method to measure bacterial translocation is the endotoxin assay. The level of plasma endotoxin 3.5 days post-IR was measured with a commercialized kit that utilized tachypleus amebocyte lysate to sensitively quantitate endotoxin at extremely low levels (<0.01 EU/ml); and 4) body weight (BW): poor nutrition and water absorption will result in reduced body weight. The rate and severity of weight loss, as well as the pace of body weight recovery, will be measured.
2) A standard scoring scale was used to evaluate stool formation (diarrhea). The bowel was extracted from the abdomen and visually inspected. Formed stool was easily distinguished from semi-solid and liquid stool as it passed from the ascending to descending colon. FIGS. 7B and 7C show the irradiated bowel in controls compared with FGF-P-treated Balb/c mice. The FGF-P was given at a dose of 2 mg/kg im for three daily doses beginning 15 min after irradiation. Animals were sacrificed 3.5 days after 10.5 Gy sub-TBI.

[7] = test system: endothelial cells (adult bovine aorta endothelium); experiment: Growth bioassay, endothelial cells; format: cell-based; details: FGF-P added to culture media
Method: These clusters can be counted thus allowing for measurement of relative binding coefficients. To test the feasibility of binding coefficient measurement, competition experiments were performed. Free FGF-P (30 ug/ml) was added to cells for 20 min and then the biotin-FGF-P (1 μg/mL) was added. One hour later, the streptavidin-FITC was added and analyzed by flow cytometry. […] In a third test, a bioassay was performed. FGF-P was added to culture media of two types of cells: endothelial cells (adult bovine aorta endothelium) and epithelial cells (SW480, a cell line from colon).
Three preliminary experiments were carried out using FGF-P in vitro to confirm its activity. First, the biotin conjugated FGF-P was used as a tool to examine cell surface binding. AsPC-1 pancreatic cancer epithelial cells are known to have high levels of FGFR and were used for this study. ASPC-1 cells were incubated with 1 μg/ml of biotin-FGF-P and then labeled with streptavidin-FITC. The cells were then analyzed using an imaging flow cytometer (Amnis Imagestream). This device can image each cell as it passes through the laser, and it can then sort cells according to both staining and morphological characteristics. […] These clusters were counted, allowing for measurement of relative binding coefficients. […] One hour later, streptavidin-FITC was added and analyzed by flow cytometry. […]

With `CC(C)C[C@H](NC(=O)[C@H](C)NC(=O)[C@@H](NC(=O)[C@H](Cc1ccc(O)cc1)NC(=O)[C@H](Cc1c[nH]c2ccccc12)NC(=O)[C@H](CO)NC(=O)[C@H](CO)NC(=O)[C@H](Cc1ccc(O)cc1)NC(=O)[C@H](CCCCN)NC(=O)[C@H](CCCNC(=N)N)NC(=O)[C@H](CO)NC(=O)[C@H](CCCNC(=N)N)NC(=O)[C@H](Cc1ccc(O)cc1)NC(=O)[C@@H](N)CS)C(C)C)C(=O)N[C@@H](CCCCN)C(=O)N[C@@H](CCCNC(=N)N)C(=O)N[C@@H](CS)C(=O)O` [FGF-P, CYRSRKYSSWYVALKRC] (H-CYRSRKYSSWYVALKRC-OH; N-terminus and C-terminus assumed) the “response of irradiated BM cells” value ([1]; 0.5 Gy, treated within 1 hour post-IR, 3H-TdR) was “in the same fashion as normal BM cells”, the order of responsiveness ([1]; 3H-TdR incorporation, serum-free media) was “FGF-P (250-500 ng/ml)>native FGF2 (50 ng/ml), GM-CSF and TPO (100 ng/ml)” and the “dose dependence of stimulatory effect” value ([1]; normal and 0.5 Gy irradiated BM cells) was “dose-dependent”. The stool hemoccult score [2] was “reduced stool hemoccult score”, the “plasma GM-CSF” value [3] was “increased the IR-reduced GM-CSF” and the bleeding time [4] was “shorter bleeding time”. For the same compound, the “dose achieving best result” value ([5]; 7.1 Gy TBI, 15, 30, 60 mg/kg tested) was 60 mg/kg, the “dose dependence of mitigation effect” value ([5]; 7.1 Gy TBI, FGF-P 15, 30, 60 mg/kg) was “dose-dependent effect” and the “mitigation effect on ARS, DMF” value ([5]; Balb/c, 6.5, 7 and 7.5 Gy TBI, FGF-P 1 mg/kg IM right after TBI, daily for 5 days) was “DMF similar to that of native FGF2”. For the same compound, the mice survived ([5]; 6.5 Gy TBI) was 87%, the mice survived ([5]; 7.5 Gy TBI) was 66% and the “mitigation effect with delayed delivery” value ([5]; FGF-P given 8 hour after 7.1 Gy IR) was “still effective”. For the same compound, the “plasma endotoxin level (mean)” value [6] was 2.12 EU/ml and the growth of endothelium [7] was “stimulated the growth of both endothelium and epithelium”.
